Here are results for 1 molecule from US9975906B2, “Tricyclic heterocycle derivatives having HIV replication inhibitory effect” (Shionogi & Co., Ltd., priority 2014, dated 2018).

One data set has as its target T1, CYP3A4 (Homo sapiens, UniProt P08684).
T1 construct: enzyme, pooled human hepatic microsome 0.2 mg protein/mL; from tissue
In words: CYP3A4 (MDZ) MBI Test. It counts as in vitro ADME. The conditions noted are these: pooled human liver microsomes, 10 μmol/L MDZ, pre-reaction 0 or 30 minutes. As for the experimental part:
CYP3A4 (MDZ) MBI test is a test of investigating mechanism based inhibition (MBI) ability on CYP3A4 inhibition of a compound by enhancement of a metabolism reaction. CYP3A4 inhibition is evaluated using 1-hydroxylation reaction of midazolam (MDZ) by pooled human liver microsomes as an index.
The reaction conditions are as follows: substrate, 10 μmol/L MDZ; pre-reaction time, 0 or 30 minutes; substrate reaction time, 2 minutes; reaction temperature, 37° C.; protein content of pooled human liver microsomes, at pre-reaction time 0.5 mg/mL, at reaction time 0.05 mg/mL (at 10-fold dilution); concentrations of the compound of the present invention, 1, 5, 10, 20 μmol/L (four points).
Pooled human liver microsomes in K-Pi buffer (pH 7.4) and a solution of the compound of the present invention as a pre-reaction solution were added to a 96-well plate at the composition of the pre-reaction. […] After centrifuged at 3000 rpm for 15 minutes, 1-hydroxymidazolam in the supernatant was quantified by LC/MS/MS.
The sample adding DMSO to a reaction system instead of a solution of the compound of the present invention is adopted as a control (100%) because DMSO is used as a solvent to dissolve the compound of the present invention. […] Shifted IC value is calculated as “IC of preincubation at 0 min/IC of preincubation at 30 min”. […]

A further data set has as its system HIV (HTLV-IIIB strain). In words: HIV Replication Inhibition Assay. It counts as cell-based. The conditions noted are these: Human immunodeficiency virus 1, MT4, 96 h, MT-4 cells, cultured four days, MTT, concentration at which cell cytotoxicity by virus is inhibited 50%. As for the experimental part: HIV (HTLV-IIIB strain) persistent infected human T cell strain Molt-4 clone 8 was cultured in 10% Fetal Bovine Serum-containing RPMI-1640 medium and the supernatant was filtered, then the virus titer was measured and the solution was stored at −80° C. Each anti-human immunodeficiency virus active substance was diluted with the above cultured medium to the designated concentration, which was dispensed into 96 well micro plate by 50 μL. Next, a MT-4 cell suspended liquid was dispensed by 100 μL (2.5×10^4 cells), then the above HIV-containing supernatant diluted with the above cultured medium was added thereto by 50 μl (60 pfu (plaque forming unit)).
The obtained mixture was cultured at 37° C. in CO2 incubator for four days, then 3-(4,5-dimethylthiazole-2-yl)-2,5-diphenyltetrazolynium bromide (MTT) 5 mg/mL in PBS was added to each well by 30 μL, followed by 1 hr-cultivation. In this step, as formazan was precipitated by reduction of MTT in living cells, the cell supernatant was removed from all was by 150 μL, then a 150 μL of solution (10% Triton X-100 and 0.4% (v/v)-HCl containing isopropanol) was added thereto, followed by shaking with a plate mixer, to elute formazan. The formazan was measured with a microreader at OD: 560 nm and 690 nm (reference wavelength) and the result was compared with the reference. EC50 means the compound concentration at which cell cytotoxicity by virus is inhibited 50%.

T1 sequence (P08684 whole entry): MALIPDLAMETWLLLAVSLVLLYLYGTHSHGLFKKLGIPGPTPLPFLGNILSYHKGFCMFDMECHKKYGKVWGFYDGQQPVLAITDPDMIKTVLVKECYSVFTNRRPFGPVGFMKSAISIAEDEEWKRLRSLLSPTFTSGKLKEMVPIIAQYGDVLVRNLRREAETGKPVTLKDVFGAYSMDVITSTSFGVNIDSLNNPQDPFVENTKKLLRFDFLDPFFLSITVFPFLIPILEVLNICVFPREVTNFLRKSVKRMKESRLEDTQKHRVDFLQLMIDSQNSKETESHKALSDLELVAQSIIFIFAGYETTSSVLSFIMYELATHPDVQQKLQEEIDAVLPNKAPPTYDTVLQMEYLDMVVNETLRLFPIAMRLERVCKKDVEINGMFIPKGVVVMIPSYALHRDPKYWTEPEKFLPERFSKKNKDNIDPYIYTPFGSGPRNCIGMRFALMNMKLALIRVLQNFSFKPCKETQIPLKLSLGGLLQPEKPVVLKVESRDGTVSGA

As to `Cc1ccc(-c2c([C@H](OC(C)(C)C)C(=O)O)c(C)c3c4c2cc(-c2ccnc(-c5ccc6c(cnn6C)c5)c2)n4CCN3CCN(C)C)cc1` [Compound I-034], on CYP3A4, the “CYP3A4 (MDZ) MBI (shifted IC)” value is “(−) (When a shifted IC is 1.0 or less, this is defined as negative)”. Besides, the EC50 – broadly, the concentration at which the effect is half-maximal – with HIV (HTLV-IIIB strain) was 2.4 nM.
